In patent US20070042937A1, “Inhibitors of 2-oxoglutarate dioxygenase as gamma globin inducers” (FibroGen, Inc., priority 2003, published 2007):
Like-named read-outs stand apart in the source and are kept apart here.

Columns and labels:
[1] = tested on: CD34+ human bone marrow progenitor cells; settings: FIG. 4B; for total hemoglobin in the cultures: compound alone
Description: Following phase I and II of the culture period, cells were harvested and approximately 1-2×10^5 cells were placed into round-bottom 96-well microtiter plates for each flow cytometry sample. The assay buffer for all washes and the diluent used for antibodies is PBS containing 0.1% BSA.
For HbF and Hb-specific immunolabeling, cells were pelleted by centrifugation at 1200 rpm for 2 minutes in a swinging bucket centrifuge (Beckman Coulter, Fullerton Calif.) with adaptors for microtiter plates, and the supernatant was aspirated. The cells were resuspended and lightly fixed in 100 ml of buffer containing 0.05% glutaraldehyde for 10 minutes, followed by addition of 100 ml of buffer and pelleting by centrifugation exactly as described above. The cells were washed two more times (for a total of 2.5 washes) before resuspension in buffer containing 1% Triton-X 100 for 5 min, to permeabilize the cells and enable penetration of antibodies. Following an additional 2.5 washes as described, cells were resuspended with 100 ml of buffer containing antibodies specific for HbF or the appropriate monoclonal isotype control (Caltag Laboratories, Burlingame Calif.), or total Hb and the matched polyclonal isotype control (BiosPacific, Emeryville Calif.).
The antibodies for HbF and isotype-matched control were directly conjugated to fluorochromes, so after antibody incubation the cells were washed as above before fixation in 1% formaldehyde, and stored at 4° C. in the dark until analysis. […] After an additional 2.5 washes, cells were fixed in 1% formaldehyde and stored at 4° C. in the dark until analysis.

K562 cells = settings: 4 days, 20 μM, FIG. 2
[2] = tested on: CD34+ human bone marrow progenitor cells; assay: Percent HbF-positive cells (F-cells) in CD34+ bone marrow progenitor cell cultures by flow cytometry; settings: for increase in F-cells over untreated cultures / increase in F-cells over untreated cultures, in combination with HU: CD34+ cells, only during Phase II, FIG. 3B; for increase in F-cells over untreated cultures, in combination with HU: in combination with 5 μM HU
[3] = tested on: CD34+ human bone marrow progenitor cells; settings: for increase in HbF expression over untreated controls: added to both Phases I and II; for increase in HbF expression as assessed by MFI: compound alone, only during Phase II; for increase in HbF expression: CD34+ progenitor cell cultures, single assay, single cultures, FIG. 6; for increase in HbF synthesis compared to vehicle controls: added during EPO-dependent Phase II, FIG. 3A
γ-globin = γ-globin mRNA expression in K562 cells by quantitative PCR, normalized to 18S rRNA; assay type: cell-based, human; settings: FIG. 1A
Description: For studies utilizing the human erythroleukemia K562 cell line (ATCC), cells were grown and cultured in complete medium (RPMI 1640, 10% fetal calf serum (FCS), 100 U/ml penicillin and 0.1 mg/ml streptomycin) in a humidified incubator at 37° C., 95% air, 5% CO2-HPIs were titrated into duplicate cultures at dosage levels spanning more than 100-fold differences in concentration, and incubated from 24 to 96 hours prior to harvesting and quantitation of F-cells and HbF levels by flow cytometry.
Each PCR run included a standard curve and water blank. In addition, a melt curve was run after completion of each PCR run to assess the specificity of the amplification. γ-globin gene expression was normalized relative to the expression level of 18S ribosomal RNA for each sample.

O=C(O)CNC(=O)c1nc(Cl)c2ccccc2c1O [HPI-1, N-((1-chloro-4-hydroxy-isoquinoline-3-carbonyl)-amino)-acetic acid]
total hemoglobin, co-treatment with HU or butyrate ([1]; co-treatment with HPI-1 and HU or butyrate): no significant change | total hemoglobin in the cultures [1]: did not cause a general increase | increase in HbF synthesis compared to negative control cultures (K562 cells): 23-52% | HbF expression (percent F-cells) when used together with HU ([2]; 20 μM plus HU, FIG. 5A): additive | HbF expression as measured by percent F-cells, compared to vehicle control (DMSO) ([2]; 20 μM, triplicate, FIG. 5A): increased | increase in F-cells over untreated cultures ([2]; compound alone): 29% | increase in F-cells over untreated cultures, in combination with HU [2]: 58% | increase in F-cells ([2]; CD34+ progenitor cells, 20 μM, FIG. 4A): 50% | F-cells, co-treatment with HU or butyrate ([2]; CD34+ progenitor cells, co-treatment with HPI-1 and HU or butyrate, FIG. 4A): additive increase | HbF expression (MFI for HbF) when used together with HU ([3]; 20 μM plus HU, FIG. 5B): additive | HbF expression as measured by MFI for HbF, compared to vehicle control (DMSO) ([3]; 20 μM, triplicate, FIG. 5B): increased | increase in HbF expression over untreated controls ([3]; CD34+ cells, 10 μM): 12% | increase in HbF expression over untreated controls ([3]; CD34+ cells, 20 μM): 47% | increase in HbF expression as assessed by MFI ([3]; CD34+ cells): 36%

O=C(O)CNC(=O)c1ncc2cc(Br)ccc2c1O [HPI-2, [(7-Bromo-4-hydroxy-isoquinoline-3-carbonyl)-amino]-acetic acid]
increase in HbF synthesis compared to negative control cultures (K562 cells): 77% | increase in F-cells over untreated cultures ([2]; compound alone): 12% | increase in F-cells over untreated cultures, in combination with HU [2]: 29% | increase in HbF expression over controls ([3]; CD34+ cells, added during both phases, concentration not given): 40% | increase in HbF expression as assessed by MFI ([3]; CD34+ cells): 5% | increase in HbF expression [3]: about 10%

COc1ccc2c(O)c(C(=O)NCC(=O)O)nc(Cl)c2c1 [HPI-3, [(1-Chloro-4-hydroxy-7-methoxy-isoquinoline-3-carbonyl)-amino]-acetic acid]
increase in HbF expression [3]: about 10%

O=C(O)CNC(=O)c1nc2cc(Cl)ccc2cc1O [HPI-4, [(7-Chloro-3-hydroxy-quinoline-2-carbonyl)-amino]-acetic acid]
increase in HbF expression [3]: 56%

CC(C)Oc1ccc2nc(C(=O)NCC(=O)O)c(O)cc2c1 [HPI-5, [(3-Hydroxy-6-isopropoxy-quinoline-2-carbonyl)-amino]-acetic acid]
increase in HbF expression [3]: 75%

O=C(O)CNC(=O)c1ncc2cc(Sc3ccccc3)ccc2c1O [HPI-6, [(4-Hydroxy-7-phenylsulfanyl-isoquinoline-3-carbonyl)-amino}-acetic acid]
expression of the gene encoding γ-globin (γ-globin; 3 days, 0, 3, 4.5, 10, 12.5 or 20 μM): increased in a dose-dependant manner | γ-globin expression with further addition of hydroxyurea (γ-globin; 3 days, plus 100 μM HU, especially at lower concentrations): augmented

NC(=O)NO [HU, hydroxyurea, reference compound]
total hemoglobin in the cultures [1]: increases | F-cells ([2]; CD34+ progenitor cells, compound alone, FIG. 4A): increases | increase in HbF synthesis compared to vehicle controls ([3]; CD34+ cells): 50%

CCCC(=O)O [butyrate, reference compound]
increase in HbF synthesis compared to vehicle controls ([3]; CD34+ cells): 85%
